# Reference: PubChem BioAssay (NCI)
# Values joined by “and” are separate entries in the source; they are usually repeats but may differ in a detail not shown here. Equal values may be shown once.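 Exposure lasted 48 hours, with cells grown in 96-well plates and compounds tested at five concentrations. GI50 is the concentration that inhibits growth by half. TGI marks complete inhibition of growth.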
# Tested on: K-562 leukemia
# Experiment: NCI anticancer screen, dose series, 48 h
Structure (SMILES),GI50 [µM],TGI [µM]
COc1ccc(Cn2c(N)c(S(=O)(=O)c3ccc(Cl)cc3)c3nc(C#N)c(C#N)nc32)cc1,> 50,> 50

# Tested on: HOP-62 NSCLC
# Experiment: NCI anticancer screen, dose series, 48 h
Structure (SMILES),GI50 [µM],TGI
COc1ccc(-c2nsc3c2NC(=O)CC3c2cccc(OC)c2)cc1 (stereo not given),2.41,33.9 µM
Cn1cnnc1Sc1c([N+](=O)[O-])ncn1C,,> 100 µM
C=CCC1(CN(C)C)CC/C(=C\c2ccc(Cl)cc2)C1=O (stereo not given),,> 100 µM
Cc1ccc2c(C3C(C#N)=C(N)Oc4cc5ccccc5cc43)cc(=O)oc2c1 (stereo not given),1.22,> 100 µM
COC(=O)c1cc2c(s1)-c1nccc3c1c(nc1ccccc13)C2=O,65.4,> 100 µM
C[N+](C)(C)CC1CCC/C1=N\OC(=O)c1ccccc1 (stereo not given),,> 100 µM
CC(=O)N1CCC(=O)/C(=C/c2ccccc2)C1,,> 100 µM
O=C(Nc1cc(C(F)(F)F)ccc1Cl)c1cccc(NC2=C(Cl)C(=O)N(Cc3ccccc3)C2=O)c1,> 100,> 100 µM
CCCCCCCN=C(N)c1ccc(N2CCN(c3ccc(C(N)=NCCCCCCC)cc3)CC2)cc1,2.5,> 100 µM
C[Si](C)(C)/C(Br)=C\CCN1C(=O)CCC1=O,,> 100 µM
Cc1ccc(S(=O)OCc2c(C)c(C)c(COS(=O)c3ccc(C)cc3)c(C)c2C)cc1 (stereo not given),,> 100 µM
C[C@]12CCC(=O)C=C1CC[C@@H]1C2CC[C@]2(C)Nc3[nH]ncc3CC12 (stereo not given in full),,> 100 µM
COc1ccc2c(c1)c[n+](C)c1c3cc(OC)c(OC)cc3ccc21,4.63,15.2 µM
O=[P@@]1(c2ccccc2)O[C@H](COCc2ccccc2)[C@@H](OCc2ccccc2)[C@H](OCc2ccccc2)[C@H]1NCc1ccccc1,3.77,> 100 µM
CSc1ccccc1C#C/C=C\C#Cc1ccccc1N,5.39,26.3 µM
O=C1c2cc3c(cc2-c2c1c1cc(Cl)c(Cl)cc1c(=O)n2C[C@H](O)CO)OCO3,< 0.01,0.0326 µM
COc1ccc(/C(=C\C=C(C#N)C#N)Sc2nc3ccccc3s2)cc1,8.16,16.7 µM
CC(C)(C)[Si](C)(C)OC1C(=O)C[C@H]2CCCC[C@@H]12 (stereo not given in full),,> 100 µM
CCN(CC)CCSc1c2ccccc2nc2c(OC)ccc(OC)c12,,> 70.2 µM

Structure (SMILES),GI50 [µM],TGI
CCOC(=O)c1ccc(N=Nc2cc(C(=O)OCC)ccc2O)cc1,,> 100 µM
[N-]=[N+]=N/C1=C/CCCCC(=O)C1,,> 100 µM
CCc1c(Cl)c(C)cc(O)c1Cl,,> 100 µM
C=COC(=O)N[C@H]1CCc2cc(OC)c(OC)c(OC)c2-c2ccc(SC)c(=O)cc21,,> 86.6 µM
Cc1ccc(NC(=O)CCc2nnc(N)o2)cc1,,> 100 µM
S=c1[nH]c2c(Cl)c(Cl)c(Cl)c(Cl)c2[nH]1,,80.2 µM
CCOC(=O)C1SC(=Nc2ccccc2)N=C1C (stereo not given),,> 100 µM
O=C1CCC(=O)c2c1c(O)c1ccncc1c2O,,69 µM
C=CCN1CCC23c4c5ccc(O)c4OC2C(=NN=C2CCC4(O)C6Cc7ccc(O)c8c7C4(CCN6CC=C)C2O8)CCC3(O)C1C5 (stereo not given),,44 µM
CN(C)CCNC(=O)c1cccc2c(Nc3ccc(S(=O)(=O)N=C(N)N)cc3)c3ccccc3nc12,,39.2 µM
COC(=O)C1=C(C(=O)OC)C2=S(SC3=C2CCCC3)S1 (stereo not given),,> 100 µM
O=C(Nc1ccc(Cl)c(C(F)(F)F)c1)c1ccc(NC2=C(Cl)C(=O)N(Cc3ccccc3)C2=O)cc1,22.4,46.1 µM
COC(=O)c1ccc(-c2c(C#N)[n+](=O)c3cc(Cl)c(Cl)cc3n2[O-])cc1,16.8,34.8 µM
CC1(C)CC(=O)CC(=Nc2ccc([N+](=O)[O-])cc2)C1,,> 100 µM
C/C(=N\NC(=S)N1CCCCCC1)c1ccccn1,0.0381,2.4 µM and 3.98 µM
Oc1ccc2ccccc2c1N=Nc1ccc(Br)cc1,,> 100 µM
CC(C)=CCc1cc2c(cc1O)OC[C@H]1c3cc4c(cc3O[C@@H]21)OCO4,,> 100 µM
Cn1cc(-c2csc(-c3c[nH]c4ccc(Br)cc34)n2)c2cnccc21,3.17,13.9 µM
COc1ccc(Cn2c(N)c(S(=O)(=O)c3ccc(Cl)cc3)c3nc(C#N)c(C#N)nc32)cc1,> 50,> 50 µM

# Tested on: UACC-257 melanoma
# Experiment: NCI anticancer screen, dose series, 48 h
Structure (SMILES),GI50,TGI
COc1ccc(-c2nsc3c2NC(=O)CC3c2cccc(OC)c2)cc1 (stereo not given),12.9 µM,> 100 µM
Cn1cnnc1Sc1c([N+](=O)[O-])ncn1C,,> 100 µM
C=CCC1(CN(C)C)CC/C(=C\c2ccc(Cl)cc2)C1=O (stereo not given),,54.1 µM
Cc1ccc2c(C3C(C#N)=C(N)Oc4cc5ccccc5cc43)cc(=O)oc2c1 (stereo not given),24.5 µM,> 100 µM
COC(=O)c1cc2c(s1)-c1nccc3c1c(nc1ccccc13)C2=O,32 µM,> 100 µM
C[Si](C)(C)/C(I)=C/CO,,45.2 µM
C[N+](C)(C)CC1CCC/C1=N\OC(=O)c1ccccc1 (stereo not given),,> 100 µM
CC(=O)N1CCC(=O)/C(=C/c2ccccc2)C1,,> 100 µM
O=C(Nc1cc(C(F)(F)F)ccc1Cl)c1cccc(NC2=C(Cl)C(=O)N(Cc3ccccc3)C2=O)c1,53.7 µM,> 100 µM
CCCCCCCN=C(N)c1ccc(N2CCN(c3ccc(C(N)=NCCCCCCC)cc3)CC2)cc1,1.24 µM,4.39 µM
C[Si](C)(C)/C(Br)=C\CCN1C(=O)CCC1=O,,> 100 µM
Cc1ccc(S(=O)OCc2c(C)c(C)c(COS(=O)c3ccc(C)cc3)c(C)c2C)cc1 (stereo not given),,> 100 µM
C[C@]12CCC(=O)C=C1CC[C@@H]1C2CC[C@]2(C)Nc3[nH]ncc3CC12 (stereo not given in full),,> 100 µM
COc1ccc2c(c1)c[n+](C)c1c3cc(OC)c(OC)cc3ccc21,1.8 µM and 13.5 µM,4.36 µM and 30.8 µM
O=[P@@]1(c2ccccc2)O[C@H](COCc2ccccc2)[C@@H](OCc2ccccc2)[C@H](OCc2ccccc2)[C@H]1NCc1ccccc1,2.22 µM,6.76 µM
C[C@H]1CN[C@@H]2[C@@H](C)[C@H]3[C@@H](C[C@H]4[C@@H]5CC[C@H]6C[C@@H](N)CC[C@]6(C)[C@H]5CC[C@]34C)O[C@@]2(O)C1,,3.74 µM
CSc1ccccc1C#C/C=C\C#Cc1ccccc1N,43.5 µM,> 100 µM
O=C1c2cc3c(cc2-c2c1c1cc(Cl)c(Cl)cc1c(=O)n2C[C@H](O)CO)OCO3,0.0123 µM,0.217 µM
COc1ccc(/C(=C\C=C(C#N)C#N)Sc2nc3ccccc3s2)cc1,10.3 µM,23.7 µM

Structure (SMILES),GI50,TGI
CC(C)(C)[Si](C)(C)OC1C(=O)C[C@H]2CCCC[C@@H]12 (stereo not given in full),,> 100 µM
CCN(CC)CCSc1c2ccccc2nc2c(OC)ccc(OC)c12,,16.5 µM
[N-]=[N+]=N/C1=C/CCCCC(=O)C1,,> 100 µM
CCc1c(Cl)c(C)cc(O)c1Cl,,99.7 µM
C=COC(=O)N[C@H]1CCc2cc(OC)c(OC)c(OC)c2-c2ccc(SC)c(=O)cc21,,77.7 µM
Cc1ccc(NC(=O)CCc2nnc(N)o2)cc1,,> 100 µM
S=c1[nH]c2c(Cl)c(Cl)c(Cl)c(Cl)c2[nH]1,,46.4 µM
Cc1cc(N(CCCNc2ccnc3cc(Cl)ccc23)Cc2ccc3c(c2)OCO3)nc(N2CCOCC2)n1,0.214 µM,0.625 µM
CCOC(=O)C1SC(=Nc2ccccc2)N=C1C (stereo not given),,> 100 µM
O=C1CCC(=O)c2c1c(O)c1ccncc1c2O,,20.2 µM
C=CCN1CCC23c4c5ccc(O)c4OC2C(=NN=C2CCC4(O)C6Cc7ccc(O)c8c7C4(CCN6CC=C)C2O8)CCC3(O)C1C5 (stereo not given),,53.2 µM
COC(=O)C1=C(C(=O)OC)C2=S(SC3=C2CCCC3)S1 (stereo not given),,> 100 µM
O=C(Nc1ccc(Cl)c(C(F)(F)F)c1)c1ccc(NC2=C(Cl)C(=O)N(Cc3ccccc3)C2=O)cc1,16.3 µM,42.7 µM
COC(=O)c1ccc(-c2c(C#N)[n+](=O)c3cc(Cl)c(Cl)cc3n2[O-])cc1,21.5 µM,50.1 µM
CC1(C)CC(=O)CC(=Nc2ccc([N+](=O)[O-])cc2)C1,,> 100 µM
C/C(=N\NC(=S)N1CCCCCC1)c1ccccn1,,0.83 µM and 0.969 µM
Oc1ccc2ccccc2c1N=Nc1ccc(Br)cc1,,> 100 µM
CC(C)=CCc1cc2c(cc1O)OC[C@H]1c3cc4c(cc3O[C@@H]21)OCO4,,> 100 µM
